The results in this text go back to BindingDB's records for doi:10.7270/Q2ZG6QP2 (Nmmlsc, 2010).

Molecules are shown by their SMILES.

For orientation: EC50 means the concentration needed to bring the measured effect to its halfway point.

One experiment concerns the target T1, Integrin alpha-4 (Homo sapiens, UniProt P13612).
T1 sequence (P13612 whole entry): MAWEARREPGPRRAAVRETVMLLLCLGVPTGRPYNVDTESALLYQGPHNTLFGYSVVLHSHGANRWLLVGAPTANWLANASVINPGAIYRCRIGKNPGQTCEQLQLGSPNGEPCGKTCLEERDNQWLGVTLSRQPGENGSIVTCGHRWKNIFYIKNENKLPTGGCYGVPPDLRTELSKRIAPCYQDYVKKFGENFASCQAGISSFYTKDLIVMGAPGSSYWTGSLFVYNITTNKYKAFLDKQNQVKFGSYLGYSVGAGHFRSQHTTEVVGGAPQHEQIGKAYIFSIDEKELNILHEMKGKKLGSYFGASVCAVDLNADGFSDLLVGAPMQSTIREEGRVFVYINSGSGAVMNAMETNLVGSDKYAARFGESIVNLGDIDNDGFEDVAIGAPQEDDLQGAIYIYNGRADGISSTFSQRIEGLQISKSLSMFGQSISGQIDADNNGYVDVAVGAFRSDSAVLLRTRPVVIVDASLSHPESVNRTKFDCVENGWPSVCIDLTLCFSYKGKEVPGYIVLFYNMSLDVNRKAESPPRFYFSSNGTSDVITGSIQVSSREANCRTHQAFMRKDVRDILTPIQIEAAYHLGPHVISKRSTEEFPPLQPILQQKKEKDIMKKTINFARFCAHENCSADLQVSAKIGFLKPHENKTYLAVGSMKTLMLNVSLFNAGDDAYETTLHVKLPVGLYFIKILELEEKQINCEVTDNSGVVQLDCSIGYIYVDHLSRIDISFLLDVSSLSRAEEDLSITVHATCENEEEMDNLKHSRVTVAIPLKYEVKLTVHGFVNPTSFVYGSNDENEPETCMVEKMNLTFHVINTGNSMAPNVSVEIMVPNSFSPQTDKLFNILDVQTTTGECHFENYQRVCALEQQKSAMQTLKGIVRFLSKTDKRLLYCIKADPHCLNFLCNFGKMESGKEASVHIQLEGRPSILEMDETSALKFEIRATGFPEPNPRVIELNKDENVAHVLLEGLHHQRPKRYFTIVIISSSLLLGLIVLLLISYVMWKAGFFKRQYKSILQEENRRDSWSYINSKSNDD
Kind of experiment: concentration series for VLA-4 modulators – cell-based, U937, HUTS-21 LIBS antibody, flow cytometry, dose response (AID 449766).
Details: not given
A general note: In flow cytometry, cells or beads pass a laser one at a time.
Compound `C=C(C=O)C[C@@H]1C[C@H](O)C2OC3C[C@]4(C)OC5/C=C\CC6OC7C(CC=CCC6OC5CCCC4OC3CC2O1)OC1CC2OC3CC(=O)OC3C[C@@H](C)C[C@@]2(C)OC1C[C@@H]7C` (some centres not stated) [MLS002320514] yielded a 50% effective concentration (EC50) of 2.15 µM.
`COc1cccc(-c2sc3ccccc3c2-c2ccc(OCCN(C)C)cc2)c1` returned a concentration for a half-maximal effect (EC50) of 12.4 µM.
The compound `CCOCCCNC(=O)/C(C#N)=C/c1ccc(Cl)c([N+](=O)[O-])c1` [(E)-3-(4-chloro-3-nitrophenyl)-2-cyano-N-(3-ethoxypropyl)-2-propenamide] had a concentration giving a half-maximal response (EC50) of 3.59 µM.
For the compound `COc1cccc(-c2sc3ccccc3c2-c2ccc(OCCN3CCCC3)cc2)c1`, the EC50 is above 30 µM.
`CCOC(=O)COc1ccccc1/C=C\[N+](=O)[O-]` [SMR000204386] returned a concentration for a half-maximal effect (EC50) of 2.45 µM.
On the same count and under the same terms, under `CCOC(=O)C(=Cc1ccc(OC(F)F)cc1)C1=Nn2c(nnc2-c2ccc(Cl)cc2)SC1` [ethyl (Z)-2-[3-(4-chlorophenyl)-7H-[1,2,4]triazolo[3,4-b][1,3,4]thiadiazin-6-yl]-3-[4-(difluoromethoxy)phenyl]prop-2-enoate] stands 7.79 µM; under `COC(=O)C[C@]1(C(=O)OC)CN(C#N)N(c2ccc(Cl)cc2)C12c1ccccc1-c1ccccc12` [methyl 1-(4-chlorophenyl)-2-cyano-4-(2-methoxy-2-oxoethyl)spiro[pyrazolidine-5,9'-(9'H)-fluorene]-4-carboxylate], above 30 µM; under `Cc1ccc(NC(=O)c2cc(N3C(=O)C=CC3=O)ccc2N2CCOCC2)cc1Cl` [N-(3-chloro-4-methylphenyl)-5-(2,5-dioxo-2,5-dihydro-1H-pyrrol-1-yl)-2-(4-morpholinyl)benzamide], 5.5 µM.
Same read-out and setting: next, `CN(C)CCOc1ccc(-c2c(-c3ccccc3)sc3ccccc23)cc1` [SMR001397792]: above 30 µM; `COc1ccc(-c2sc3ccccc3c2-c2ccc(OCCN(C)C)cc2)cc1` [MLS002473632]: above 30 µM; `O=C(COc1ccc(C=NNC(=O)c2cc3ccccc3o2)cc1Cl)Nc1ccccc1` [SMR000160815]: above 30 µM.
As for `C[S+]([O-])c1nc(-c2ccc(Br)cc2)cc(-c2ccccc2)c1C#N` (configuration not stated) [6-(4-bromophenyl)-2-(methylsulfinyl)-4-phenylnicotinonitrile], a half-maximal effect (EC50) was put at 2.67 µM.
Regarding `COC(=O)[C@@H]1[C@@H](C(=O)OC)C2(c3ccccc3-c3ccccc32)N(c2ccc(Cl)cc2)N1C#N` [(3'S,4'R)-1'-(4-chlorophenyl)-2'-cyanospiro[fluorene-9,5'-pyrazolidine]-3',4'-dicarboxylic acid dimethyl ester], the EC50 was above 30 µM.
The same measure, in the same setting: under `C=C1C(O)[C@@H]2O[C@]3(CC[C@H](/C=C/C(C)[C@@H]4CC(C)=CC5(O[C@H](C[C@@](C)(O)CO)CCC5O)O4)O3)CC[C@H]2O[C@@H]1C(O)CC(C)[C@H]1OC2(CCCCO2)CCC1C` (some centres not stated) [MLS002320507] stands 0.61 µM; under `CC(NC(=O)/C(C#N)=C/c1ccc(Cl)c([N+](=O)[O-])c1)c1ccccc1` (configuration not stated) [(E)-3-(4-chloro-3-nitrophenyl)-2-cyano-N-(1-phenylethyl)prop-2-enamide], 0.95 µM.
As for `COc1ccc(C(=O)c2cc([N+](=O)[O-])ccc2N2CCOCC2)cc1` [MLS000663963], the half-maximal effective concentration (EC50) is above 30 µM.
`COC(=O)C1CN(C#N)N(c2ccc(Cl)cc2)C12c1ccccc1-c1ccccc12` (configuration not stated) [2'-(4-chlorophenyl)-1'-cyano-4'-spiro[fluorene-9,3'-pyrazolidine]carboxylic acid methyl ester]: a half-maximal effect (EC50) was put at 6.71 µM.
Regarding `c1ccc(-c2sc3ccccc3c2-c2ccc(OCCN3CCCC3)cc2)cc1` [1-[2-[4-(2-phenyl-1-benzothiophen-3-yl)phenoxy]ethyl]pyrrolidine], the EC50 was 14.8 µM.

The same experiment, now with this note: inactive by the depositor's call.
For the compound `COc1cccc(-c2sc3ccccc3c2-c2ccc(OCCN3CCCCC3)cc2)c1` [SMR001397793], the concentration for a half-maximal effect (EC50) was found to be 5.46 µM.
In turn, `FC(F)(F)c1nnc(-c2ccccc2)nc1Sc1ccc(Cl)cc1` [SMR000180067] gave a concentration giving a half-maximal response (EC50) of 0.73 µM.
The same measure, in the same setting: under `CC1(C)C[C@H]2C=C(C=O)[C@]3(C=O)C[C@]3(C)[C@H]2C1` stands 3.15 µM; under `COc1cccc(-c2sc3ccc(OC)cc3c2-c2ccc(OCCN(C)C)cc2)c1` [SMR001397780], 0.22 µM.
